Two molecules from patent publication US11565003B2, “Mechanical opening of lipid bilayers by molecular nanomachines” (William Marsh Rice University, priority 2016, dated 2023) can be followed below.

Assay [1] concerns PC-3 cells. The assay is described as follows: Two-photon near-infra red activation, PI dye entry, PC-3. The assay is classed as cell-based, human. The conditions noted are these: PC-3, 1 μM, PI 200 nM. The protocol:
(§1) Two-photon microscopy studies of NIH 3T3 cells were executed on a Nikon E600 upright confocal microscope coupled to a tuneable (710-950 nm Coherent MaiTai) multiphoton source operating at (20%) 240 mW power using a 166 lps scan speed and 128×128 pixel frame resolution for MP-illumination. Images (512×512 pixel, 166 lps) were recorded using a 543 nm (1 mW HeNe) laser combined with a 560 nm long-pass filter to record PI (200 nM) fluorescence and follow the onset of induced necrosis.
(§2) Two photon live cell microscopy studies were also executed on a Nikon E600 upright confocal microscope coupled to a tuneable (710-950 nm Coherent MaiTai) multiphoton source operating at (19.8%) 240 mW power at 720 nm using 166 lines/sec scan speed and 128×128 pixel frame resolution for MP-illumination. An oil immersion Nikon IR objective (×60/1.4 NA) was used. Images (512×512 pixel, 166 l/s) were recorded using a 543 nm (1 mW HeNe) laser combined with a 570 nm long-pass filter to record PI dyes (200 nM). Fluorescence was measured as 2 frame averaged images in order to follow the onset of induced necrosis. Necrosis times have been assigned to detectable PI signals in the nucleolus.

In assay [2] the test system is NIH 3T3 cells. The assay is described as follows: Two-photon near-infra red activation, PI dye entry, NIH 3T3. The assay is classed as cell-based, mouse. The conditions noted are these: NIH 3T3, 1 μM, PI 200 nM. The protocol:
as §1, §2

Assay [3] has as its system PC-3 cells. The assay is described as follows: UV-activated nanomechanical necrosis, live cell confocal microscopy, PC-3. The assay is classed as cell-based, human. On the procedure:
Following the synthetic bilipid vesicle experiments, nanomechanical action upon live cells was studied using confocal microscopy aided by a super-resolution technique called Phase Modulation Nanoscopy. Applicants used two experimental methods. In the first method (Method A), the molecular motors were loaded into the cell media and the imaging was initiated within 5 minutes to 24 hours. In the second method, (Method B), the molecular motors were loaded into the cell media, incubated for 30 minutes to 24 hours, and then washed three times with fresh molecular motor-free media before imaging.
Next, Applicants used the smaller nanomachine, 3. Initial control experiments (blank) were performed without nanomachines being present. UV-induced (355 nm) PC-3 necrosis is not initiated until approximately scan 20 (corresponding to 300 second continuous scanning UV exposure, 400 nJ/voxel total dwell time), characterized by massive disruption and rupture of the mitochondrial network and subsequent well-pronounced auto-fluorescent signal detectable in the nucleoli and nucleus wall (FIG. 7A). This is observable by the nucleoli membrane permeabilization and DNA damage at the onset of necrosis. The UV-induced necrosis reaches final stages at approximately scan 40 (corresponding to 600 seconds) that is consistent with characteristic extracellular membrane rupture and homogenous cytosolic auto-fluorescence, indicating loss of cellular organelle boundaries.
(§3) Microscopy cells were seeded in untreated iBibi 100 μL live cell channels and allowed to grow to 40% to 60% confluence, at 37° C. in 5% CO2. At this stage, the medium was replaced and cells were treated with the studied nanomachines and co-stains as appropriate, with 0.1% DMSO (as detailed above) present in the final imaging medium. For live cell imaging, DMEM/F12 media (10% FBS) lacking phenol red was used from this point onwards. Following incubation, where Method B was used, the channels were washed with live cell imaging media and imaged using a purpose build incubator housing the microscope maintaining 37° C., 5% CO2 and 10% humidity.
(§4) All live cell imaging experiments used either NIH 3T3 mouse skin fibroblast cells, PC-3 cells, a grade 3 human prostate adenocarcinoma, or Chinese hamster ovary cells (CHO). These are all well-studied cell lines with discrete morphological compositions. Each molecular machine was used as a stock solution at 0.10 to 1.00 μM with total dimethyl sulfoxide (DMSO) concentrations not exceeding 0.1% in the final cell media in order to avoid unwanted cell membrane permeabilization, the DMSO being required for solubility of the organic nanomachines. All loading experiments are carried out in a light-suppressed manner and the possibility of induced or accelerated uptake due to interaction between the molecular motors and the applied co-stain has been eliminated using a series of individual and reversed loading experiments.
(§5) All experimental imaging parameters (i.e., laser beam size, confocal pinhole size, laser intensity, line scanning speed, scanning area (field of view, FOV), and line averaging sequences) were kept constant throughout the experiments. The accuracy and errors associated with the establishment of accelerated necrosis are determined based on one dual channel imaging sequence, which takes 15 seconds in total. This imaging sequence has been carefully established using untreated live cells.
Steady state fluorescence images were recorded using a PhMoNa enhanced Leica SP5 II LSCM equipped with a HCX PL APO 63×/1.40 NA LambdaBlue Oil immersion objective. As an initial control experiment to establish the UV-induced cell toxicity threshold, while mitigating voxel exposure and ensuring sufficient laser dwell time, an imaging sequence has been established to monitor cell morphological and physiological changes as a function of time. All experiments used cell-line-determined culture medium containing 0.1% DMSO. […]

The test system of assay [4] is NIH 3T3 cells. The assay is described as follows: UV-activated nanomechanical necrosis, live cell confocal microscopy, NIH 3T3. The assay is classed as cell-based, mouse. The conditions noted are these: 355 nm UV. On the procedure: Following the synthetic bilipid vesicle experiments, nanomechanical action upon live cells was studied using confocal microscopy aided by a super-resolution technique called Phase Modulation Nanoscopy. Applicants used two experimental methods. In the first method (Method A), the molecular motors were loaded into the cell media and the imaging was initiated within 5 minutes to 24 hours. In the second method, (Method B), the molecular motors were loaded into the cell media, incubated for 30 minutes to 24 hours, and then washed three times with fresh molecular motor-free media before imaging. […]
as §3, §4, §5
Steady state fluorescence images were recorded using a PhMoNa enhanced Leica SP5 II LSCM equipped with a HCX PL APO 63×/1.40 NA LambdaBlue Oil immersion objective. As an initial control experiment to establish the UV-induced cell toxicity threshold, while mitigating voxel exposure and ensuring sufficient laser dwell time, an imaging sequence has been established to monitor cell morphological and physiological changes as a function of time. All experiments used cell-line-determined culture medium containing 0.1% DMSO.
The applied 100 Hz detection sequence was based on a bidirectional dual-channel continuous scanning method where a minimalistic non-damaging visible laser light (458 nm, 0.2 mW) is used in conjunction with the above detailed UV exposure. This is set as a 2 line/scan accumulation parallel acquisition sequence that is recorded as a function of time. Studied channels correspond to transmission images and UV-induced mitochondrial auto-fluorescence detected at 460 to 550 nm. Applicants further confirmed that the effectiveness of monitoring the UV-activated nanomechanical action on live cells using a conventional CW mercury-arc excitation source equipped with an epi-fluorescence setup consisting of a Zeiss Axiovert 200M inverted microscope, as discussed in FIGS. 18A-C. […]

A further assay deals with HEK293 cells. The assay is described as follows: Whole cell patch clamp electrophysiology. The assay is classed as cell-based, human. On the procedure:
FIGS. 16A-B show whole-cell patch clamp studies of the dynamic effects of UV-induced molecular mechanical action of compound 3 upon HEK293 cells. Also shown are control studies using compound 3 without UV activation, UV-exposed rotor-free control molecule 5, and no molecular additives x. Compounds 3 and 5 were used at 1.0 μM concentrations. […] Similarly, the rotor-free compound 5, and no molecular additive x, show no inward currents during UV illumination (center two traces). Cells were held at −70 mV in voltage clamp mode and UV exposure began 15 seconds after the start of the recording. Each recording is a biological replicate and all traces are shown (n=4 recordings from different cells for 3+UV; n=3 recordings from different cells for each other condition). […] The white arrows (lower right image) highlight membrane blebbing that appears only in the cells treated with UV-activated compound 3. The scale bar represents 10 μm and is applicable for each micrograph.
The dynamic effects of nanomechanical action upon cellular membranes were then studied through the whole cell patch clamp electrophysiology of human embryonic kidney 293 cells (HEK293) commonly used for electrophysiological interrogation. […] These inward currents were not observed in the absence of UV illumination or during UV illumination of non-rotor-bearing control 5 or UV illumination of untreated cells (FIG. 16A).
(In patch-clamp work, channel activity is measured electrically.)

The test system of assay [5] is synthetic bilipid vesicles. The assay is described as follows: BODIPY dye release from synthetic bilipid vesicles upon UV illumination. The settings on record: first 15 minutes of UV exposure, 365 nm. The protocol: Premixed and dried synthetic phospholipid blend [1,2-dioleoyl-sn-glycero-3-phosphoethanolamine (DOPE): 1,2-dioleoyl-sn-glycero-3-phospho-L-serine (DOPS): 1,2-dioleoyl-sn-glycero-3-phosphocholine (DOPC) at a ratio of 5:3:2] were stored in a −20° C. freezer before use. To prepare the large unilamellar vesicles (LUVs), 5 mL 0.5× phosphate buffered saline (PBS) at pH 7.4 was added to swell the lipids solution (lipid concentration was 0.25 mg/mL). Then 7 μL of 210 μM BODIPY dye and 2 μL of 50 μM 1 (or 16 in the control experiments) were added to the solution. After incubation for 1 hour at room temperature with occasional vortexing, the lipids formed a cloudy suspension. […] The vesicles were then observed using a home-build confocal fluorescence microscope at 488 nm excitation and 535±50 nm emission.
Due to the highly non-polar nature of compound 1, it prefers to be sorbed in the bilipid membrane (FIG. 3). […] The fluorescence intensity of the BODIPY dye molecules in single vesicles was monitored using a confocal fluorescence microscope by continuously scanning a small area (20×20 μm^2).
As the UV illumination time increased from 0 to 15 minutes, the fluorescence intensity of the vesicles became dimmer (FIG. 4E). […] The average fluorescence intensity drop of 20 vesicles was 70±6% (mean±standard deviation) in the first 15 minutes of UV exposure. […]

Where [6] appears, read: PC-3, Method A (no washing), 355 nm UV.

Structures are written as SMILES.

As for `C[C@@H]1Cc2ccc3ccccc3c2C1=C1c2cc(C#CCCO)ccc2Sc2ccc(C#CCCO)cc21` (racemic) [Compound 3], the “PI dye entry upon two-photon near-infra red illumination (in words)” value in the assay on PC-3 cells [1] and with NIH 3T3 cells [2] was “resulting in Propidium Iodide (PI) dyes entering” in each case. In addition, the “Time of Full Necrosis” value stood at 300 s in the assay with PC-3 cells [3] (setting [6]) and 300 s with NIH 3T3 cells [4] (NIH 3T3, Method A (no washing)). Moreover, the “Time of Initial Necrosis” value in the assay on PC-3 cells [3] (setting [6]) is reported as 135 s; in the assay on NIH 3T3 cells [4] (NIH 3T3, Method A (no washing)), 150 s. Besides, the “% acceleration for full necrosis” value with PC-3 cells [3] (PC-3, Method A, 355 nm UV, versus UV upon blank cells) turned out to be 50%; in the assay with NIH 3T3 cells [4] (NIH 3T3, Method A, versus UV upon blank cells), 50%. Further, in the assay with PC-3 cells [3] (PC-3, propidium iodide 0.10 μM in medium), the “PI entry into cells upon UV-activated membrane disruption (in words)” value is given as “PI enters the cell”. In addition, the “membrane currents without UV illumination (in words)” value with HEK293 cells (HEK293, 1.0 μM, 4 minute recording, no UV) is “no change in membrane currents”. Besides, the “inward ionic currents during UV illumination (in words)” value with HEK293 cells (HEK293, Method B, UV 355 nm, 1.0 μM) is “inward ionic currents were produced”. In addition, in the assay on HEK293 cells (HEK293, after UV illumination), the “radius of membrane blebs” value is given as 3.8±0.2 μm.

Regarding `COc1cc(C#Cc2ccc(C3=C4C(C)=C(C#CC56CC7CC(CC(C7)C5)C6)C(C)=[N+]4[B-](F)(F)n4c(C)c(C#CC56CC7CC(CC(C7)C5)C6)c(C)c43)cc2)c(OC)cc1C#Cc1ccc(C2=C3C(C)=C(C#CC45CC6CC(CC(C6)C4)C5)C(C)=[N+]3[B-](F)(F)n3c(C)c(C#CC45CC6CC(CC(C6)C4)C5)c(C)c32)cc1` [Compound 16], the “average fluorescence intensity drop of BODIPY in 20 vesicles (mean±standard deviation)” value in assay [5] was 9%±20%.
